Data published in patent US20240122847A1, “ORAL POLYPEPTIDE FORMULATIONS” (Bhami's Research Laboratory, Pvt. Ltd., priority 2022, published 2024).
Like-named read-outs stand apart in the source and are kept apart here.

How the values were obtained:
[1] = test system: serum calcium, serum phosphorous and alkaline phosphatase; assay: Pharmacodynamics of PTH in Yorkshire pigs; format: in vivo; parameters: sCa / sP / sALP: unit not given here; settings: for sALP / sCa / sP: Yorkshire pigs
Description: The serum calcium and serum phosphorous were estimated using Siemen's […] 744 Electrolyte Analyzer and for serum ALP Siemen's Dimension Expand Plus was used.
The pharmacodynamics data in subcutaneous and buccal/Sublingual groups are shown in Tables 21 and 22 and in FIGS. 63 and 64.

[2] = minipig, in vivo
Description: (§1) Pharmacokinetic analysis was conducted in Female Minipigs weighing 12±1 kg for 2 days. Pigs in the oral treatment group was either fasted overnight or fed prior to the test sample administration. All the test animals in the treatment groups were administered with respective test formulation to the pre-designated animals. The animal was restrained and its head was held vertically, the jaws were pulled away, the tongue was gently lifted with a forceps followed by placement of a polypeptide formulation as described herein buccally/sublingually. After placing a polypeptide formulation as described herein, the snout was held together for about 1-2 mins to prevent the chewing of the polypeptide formulation. The time of dosage of each animal was noted. Blood samples were collected at aforementioned time points 0 min, 5 min, 30 min, 1 hour, 2 hours, 4 hours, 8 hours, and 24 hours into an EDTA-blood collection tubes for the separation of plasma to determine PTH (1-34) levels by ELISA. Plasma samples collected at different time points were analyzed by ELISA kit according to Creative Diagnostics protocol. This kit is based on sandwich enzyme-linked immuno-sorbent assay technology. An antibody, anti-PTH (1-34) was pre-coated onto a 96-well plate. Standards, test samples, and biotin-conjugated reagent were added to the wells and incubated. The HRP-conjugated reagent was then added, and the whole plate was incubated. Unbound conjugates were removed using wash buffer at each stage. TMB substrate was used to quantify the HRP enzymatic reaction. After TMB substrate was added, only wells that contain sufficient PTH (1-34) will produce a blue colored product, which then changes to yellow after adding the acidic stop solution. The intensity of the yellow color is proportional to the PTH (1-34) amount bound on the plate. The Optical Density (OD) was measured spectrophotometrically at 450 nm in a microplate reader, from which the concentration of PTH (1-34) can be calculated.
(§2) PTH (1-34) was analyzed in plasma using a specific enzyme linked immunosorbent assay (ELISA). Pharmacokinetic endpoints were determined using noncompartmental methods using PK Solutions software. AUC was approximated using the trapezoidal rule on the observed concentrations. C max for each PTH (1-34) dose was derived as the maximum of all valid concentrations, and t max was then determined as the corresponding time point to C max. The terminal elimination rate constant (λz) was estimated by log-linear regression on the terminal part of the concentration-time curve, and t ½ was then calculated as t ½=ln 2/λz.

[3] = rat, in vivo, sc, 0.04 mg
Description: Pharmacokinetic analysis was conducted in female rats weighing 220-250 grams for 2 days. Rats in the oral treatment group was either fasted overnight or fed prior to the test sample administration. All the test animals in the treatment groups were administered with respective test formulation to the pre-designated animals. The animal was restrained and its head was held vertically, the jaws were pulled away, the tongue was gently lifted with a forceps followed by placement of a polypeptide formulation as described herein buccally/sublingually. After placing a polypeptide formulation as described herein, the snout was held together for about 1-2 mins to prevent the chewing of the polypeptide formulation. The time of dosage of each animal was noted. Blood samples were collected at aforementioned time points 0 min, 15 min, 30 min, 1 hour, 2 hours, 4 hours, 8 hours, 12 hours, 24 hours, and 48 hours into an EDTA-blood collection tubes for the separation of plasma to determine PTH (1-34) levels by ELISA. Plasma samples collected at different time points were analyzed by ELISA kit according to Creative Diagnostics protocol. This kit is based on sandwich enzyme-linked immuno-sorbent assay technology. An antibody, anti-PTH (1-34) was pre-coated onto a 96-well plate. Standards, test samples, and biotin-conjugated reagent were added to the wells and incubated. The HRP-conjugated reagent was then added, and the whole plate was incubated. Unbound conjugates were removed using wash buffer at each stage. TMB substrate was used to quantify the HRP enzymatic reaction. After TMB substrate was added, only wells that contain sufficient PTH (1-34) will produce a blue colored product, which then changes to yellow after adding the acidic stop solution. The intensity of the yellow color is proportional to the PTH (1-34) amount bound on the plate. The Optical Density (OD) was measured spectrophotometrically at 450 nm in a microplate reader, from which the concentration of PTH (1-34) can be calculated.
as §2

[4] = Summary of bioavailability of the formulations of the Examples compared to SC or IV; settings: plasma, other: buccal/sublingual
[5] = Pharmacokinetics of PTH (1-34) in minipigs, sugar truffle buccal/sublingual vs SC, plasma PTH (1-34) ELISA; settings: for AUC(0-inf) / AUC 0-t / AUC(t-inf) extrapolated / MRT inf / AUMC 0-inf_obs / AUMC 0-inf_pred / AUMC 0-t / AUMC t-inf_obs / AUMC t-inf_pred / Clast_obs / Clast_pred / Lambda_z / Tlag / Tlast: minipigs; for Mean PTH (1-34) levels: pigs, GII - Buccal/sublingual 0.49 mg
Description: as §1, §2

[6] = Buccal/Sublingual Sugar Truffle Shell (0.49 mg), 0 h
[7] = Buccal/Sublingual Sugar Truffle Shell (0.49 mg), 0.08 h
[8] = Buccal/Sublingual Sugar Truffle Shell (0.49 mg), 0.5 h
[9] = Buccal/Sublingual Sugar Truffle Shell (0.49 mg), 1 h
[10] = Buccal/Sublingual Sugar Truffle Shell (0.49 mg), 2 h
[11] = Buccal/Sublingual Sugar Truffle Shell (0.49 mg), 4 h
[12] = Buccal/Sublingual Sugar Truffle Shell (0.49 mg), 8 h
[13] = Buccal/Sublingual Sugar Truffle Shell (0.49 mg), 24 h
[14] = female, Yorkshire, minipig, plasma, 0.49 mg
[15] = female, Yorkshire, minipig, plasma, sc, 0.04 mg

SMILES: CC[C@H](C)[C@H](NC(=O)[C@H](CCC(=O)O)NC(=O)[C@H](CO)NC(=O)[C@@H](NC(=O)[C@@H](N)CO)C(C)C)C(=O)N[C@@H](CCC(N)=O)C(=O)N[C@@H](CC(C)C)C(=O)N[C@@H](CCSC)C(=O)N[C@@H](Cc1cnc[nH]1)C(=O)N[C@@H](CC(N)=O)C(=O)N[C@@H](CC(C)C)C(=O)NCC(=O)N[C@@H](CCCCN)C(=O)N[C@@H](Cc1cnc[nH]1)C(=O)N[C@@H](CC(C)C)C(=O)N[C@@H](CC(N)=O)C(=O)N[C@@H](CO)C(=O)N[C@@H](CCSC)C(=O)N[C@@H](CCC(=O)O)C(=O)N[C@@H](CCCN=C(N)N)C(=O)N[C@H](C(=O)N[C@@H](CCC(=O)O)C(=O)N[C@@H](Cc1c[nH]c2ccccc12)C(=O)N[C@@H](CC(C)C)C(=O)N[C@@H](CCCN=C(N)N)C(=O)N[C@@H](CCCCN)C(=O)N[C@@H](CCCCN)C(=O)N[C@@H](CC(C)C)C(=O)N[C@@H](CCC(N)=O)C(=O)N[C@@H](CC(=O)O)C(=O)N[C@H](C(=O)N[C@@H](Cc1cnc[nH]1)C(=O)N[C@@H](CC(N)=O)C(=O)N[C@@H](Cc1ccccc1)C(=O)O)C(C)C)C(C)C [PTH (1-34)]
- sALP [1, 6]: 170.55 ± 12.85
- sCa [1, 6]: 9.46 ± 0.4
- sP [1, 6]: 10.52 ± 0.33
- sALP [1, 7]: 193.5 ± 9.32
- sCa [1, 7]: 10.05 ± 0.17
- sP [1, 7]: 9.87 ± 0.15
- sALP [1, 8]: 170.25 ± 10.81
- sCa [1, 8]: 9.77 ± 0.12
- sP [1, 8]: 8.82 ± 0.17
- sALP [1, 9]: 148.5 ± 11.9
- sCa [1, 9]: 9.62 ± 0.04
- sP [1, 9]: 8.3 ± 0.16
- sALP [1, 10]: 137.75 ± 9.67
- sCa [1, 10]: 9.25 ± 0.26
- sP [1, 10]: 9.1 ± 0.49
- sALP [1, 11]: 131 ± 11.91
- sCa [1, 11]: 9.3 ± 0.34
- sP [1, 11]: 9 ± 0.11
- sALP [1, 12]: 128 ± 14.02
- sCa [1, 12]: 9.17 ± 0.26
- sP [1, 12]: 8.97 ± 0.17
- sALP [1, 13]: 126.5 ± 15.28
- sCa [1, 13]: 9 ± 0.18
- sP [1, 13]: 9.02 ± 0.14
- sALP ([1]; Subcutaneous (40 μg), 0 h): 116.5 ± 6.36
- sCa ([1]; Subcutaneous (40 μg), 0 h): 9.35 ± 0.63
- sP ([1]; Subcutaneous (40 μg), 0 h): 10.7 ± 0.14
- sALP ([1]; Subcutaneous (40 μg), 0.08 h): 119.5 ± 2.12
- sCa ([1]; Subcutaneous (40 μg), 0.08 h): 9.65 ± 0.77
- sP ([1]; Subcutaneous (40 μg), 0.08 h): 10.52 ± 0.17
- sALP ([1]; Subcutaneous (40 μg), 0.5 h): 134.5 ± 17.67
- sCa ([1]; Subcutaneous (40 μg), 0.5 h): 9.95 ± 0.49
- sP ([1]; Subcutaneous (40 μg), 0.5 h): 9.8 ± 0.28
- sALP ([1]; Subcutaneous (40 μg), 1 h): 158 ± 38.18
- sCa ([1]; Subcutaneous (40 μg), 1 h): 10.4 ± 0.14
- sP ([1]; Subcutaneous (40 μg), 1 h): 9 ± 0.84
- sALP ([1]; Subcutaneous (40 μg), 2 h): 152.5 ± 36.06
- sCa ([1]; Subcutaneous (40 μg), 2 h): 10.3 ± 0.14
- sP ([1]; Subcutaneous (40 μg), 2 h): 10.25 ± 1.06
- sALP ([1]; Subcutaneous (40 μg), 4 h): 141.5 ± 33.23
- sCa ([1]; Subcutaneous (40 μg), 4 h): 9.9 ± 0.42
- sP ([1]; Subcutaneous (40 μg), 4 h): 11 ± 0
- sALP ([1]; Subcutaneous (40 μg), 8 h): 133.5 ± 23.33
- sCa ([1]; Subcutaneous (40 μg), 8 h): 9.5 ± 0.28
- sP ([1]; Subcutaneous (40 μg), 8 h): 11.4 ± 0.28
- sALP ([1]; Subcutaneous (40 μg), 24 h): 114.5 ± 3.53
- sCa ([1]; Subcutaneous (40 μg), 24 h): 9.4 ± 0.28
- sP ([1]; Subcutaneous (40 μg), 24 h): 11.6 ± 0.28
- PD effect on serum calcium, serum phosphorous and serum alkaline phosphatase ([1]; pigs, PTH given by buccal/sublingual route): clearly indicates the effect on serum calcium, serum phosphorous and serum alkaline phosphatase
- AUC 0-inf/D_obs ([2]; 0.49 mg): 13610.915 pg·h/mL/mg
- AUC 0-inf/D_pred ([2]; 0.49 mg): 13604.805 pg·h/mL/mg
- AUC 0-t/0-inf_obs ([2]; 0.49 mg): 0.996
- AUC 0-t/0-inf_pred ([2]; 0.49 mg): 0.997
- Clast_obs/Cmax ([2]; 0.49 mg): 0.005
- Clast_pred/Cmax ([2]; 0.49 mg): 0.005
- AUC 0-inf/D_obs ([2]; sc, 0.04 mg): 240.561 pg·h/mL/µg
- AUC 0-inf/D_pred ([2]; sc, 0.04 mg): 240.495 pg·h/mL/µg
- AUC 0-t/0-inf_obs ([2]; sc, 0.04 mg): 0.996
- AUC 0-t/0-inf_pred ([2]; sc, 0.04 mg): 0.996
- Cl/F_obs ([2]; sc, 0.04 mg): 0.004 (μg)/(pg/mL)/h
- Cl/F_pred ([2]; sc, 0.04 mg): 0.004 (μg)/(pg/mL)/h
- Clast_obs/Cmax ([2]; sc, 0.04 mg): 0.002
- Clast_pred/Cmax ([2]; sc, 0.04 mg): 0.002
- Vz/F_obs ([2]; sc, 0.04 mg): 0.027 (μg)/(pg/mL)
- Vz/F_pred ([2]; sc, 0.04 mg): 0.027 (μg)/(pg/mL)
- AUC 0-inf/D_obs [3]: 480.625 pg·h/mL/µg
- AUC 0-inf/D_pred [3]: 480.502 pg·h/mL/µg
- Cl/F_obs [3]: 0.002 (μg)/(pg/mL)/h
- Cl/F_pred [3]: 0.002 (μg)/(pg/mL)/h
- Vz/F_obs [3]: 0.013 (μg)/(pg/mL)
- Vz/F_pred [3]: 0.013 (μg)/(pg/mL)
- bioavailability [4]: > 7%
- Cmax [5, 14]: 3290 pg/mL
- MRT last [5, 14]: 1.35 h
- Tmax [5, 14]: 0.08 h
- half-life [5, 14]: 0.977 h
- level at 5 min [5, 14]: 3290 pg/mL
- level at 0.5 h [5, 14]: 3040 pg/mL
- level at 1 h [5, 14]: 2610 pg/mL
- level at 2 h [5, 14]: 1240 pg/mL
- level at 4 h [5, 14]: 189 pg/mL
- level at 8 h [5, 14]: 17.8 pg/mL
- AUC(0-inf) ([5]; female, Yorkshire, minipig, plasma, 0.49 mg, AUC 0-inf_obs, buccal/sublingual): 6.67 ng·h/mL
- AUC(0-inf) ([5]; female, Yorkshire, minipig, plasma, 0.49 mg, AUC 0-inf_pred, buccal/sublingual): 6.67 ng·h/mL
- AUC 0-t ([5]; female, Yorkshire, minipig, plasma, 0.49 mg, buccal/sublingual): 6.64 ng·h/mL
- AUC(t-inf) extrapolated ([5]; female, Yorkshire, minipig, plasma, 0.49 mg, AUC t-inf_obs, buccal/sublingual): 0.025 ng·h/mL
- AUC(t-inf) extrapolated ([5]; female, Yorkshire, minipig, plasma, 0.49 mg, AUC t-inf_pred, buccal/sublingual): 0.022 ng·h/mL
- MRT inf ([5]; female, Yorkshire, minipig, plasma, 0.49 mg, MRT 0-inf_obs, buccal/sublingual): 1.39 h
- MRT inf ([5]; female, Yorkshire, minipig, plasma, 0.49 mg, MRT 0-inf_pred, buccal/sublingual): 1.38 h
- bioavailability ([5]; female, Yorkshire, minipig, plasma, other: buccal/sublingual, 0.49 mg): 6%
- Cmax [5, 15]: 3280 pg/mL
- MRT last [5, 15]: 2.02 h
- Tmax [5, 15]: 0.5 h
- half-life [5, 15]: 4.55 h
- level at 0 h [5, 15]: 0.002 pg/mL
- level at 5 min [5, 15]: 394 pg/mL
- level at 0.5 h [5, 15]: 3280 pg/mL
- level at 1 h [5, 15]: 3260 pg/mL
- level at 2 h [5, 15]: 2990 pg/mL
- level at 4 h [5, 15]: 164 pg/mL
- level at 8 h [5, 15]: 50 pg/mL
- level at 24 h [5, 15]: 6.43 pg/mL
- AUC(0-inf) ([5]; female, Yorkshire, minipig, plasma, sc, 0.04 mg, AUC 0-inf_obs): 9.62 ng·h/mL
- AUC(0-inf) ([5]; female, Yorkshire, minipig, plasma, sc, 0.04 mg, AUC 0-inf_pred): 9.62 ng·h/mL
- AUC 0-t [5, 15]: 9.58 ng·h/mL
- AUC(t-inf) extrapolated ([5]; female, Yorkshire, minipig, plasma, sc, 0.04 mg, AUC t-inf_obs): 0.0423 ng·h/mL
- AUC(t-inf) extrapolated ([5]; female, Yorkshire, minipig, plasma, sc, 0.04 mg, AUC t-inf_pred): 0.0396 ng·h/mL
- MRT inf ([5]; female, Yorkshire, minipig, plasma, sc, 0.04 mg, MRT 0-inf_obs): 2.15 h
- MRT inf ([5]; female, Yorkshire, minipig, plasma, sc, 0.04 mg, MRT 0-inf_pred): 2.14 h
- AUMC 0-inf_obs ([5]; SC, 0.04 mg): 20668.040 pg/mL*h^2
- AUMC 0-inf_pred ([5]; SC, 0.04 mg): 20587.700 pg/mL*h^2
- AUMC 0-t ([5]; SC, 0.04 mg): 19375.595 pg/mL*h^2
- AUMC t-inf_obs ([5]; SC, 0.04 mg): 1292.445 pg/mL*h^2
- AUMC t-inf_pred ([5]; SC, 0.04 mg): 1212.104 pg/mL*h^2
- Clast_obs ([5]; SC, 0.04 mg): 6.435 pg/mL
- Clast_pred ([5]; SC, 0.04 mg): 6.035 pg/mL
- Lambda_z ([5]; SC, 0.04 mg): 0.152 h⁻¹
- Tlag ([5]; SC, 0.04 mg): 0.000 h
- Tlast ([5]; SC, 0.04 mg): 24.000 h
- AUMC 0-inf_obs ([5]; buccal/sublingual, 0.49 mg): 9236.909 pg/mL*h^2
- AUMC 0-inf_pred ([5]; buccal/sublingual, 0.49 mg): 9208.738 pg/mL*h^2
- AUMC 0-t ([5]; buccal/sublingual, 0.49 mg): 9001.303 pg/mL*h^2
- AUMC t-inf_obs ([5]; buccal/sublingual, 0.49 mg): 235.606 pg/mL*h^2
- AUMC t-inf_pred ([5]; buccal/sublingual, 0.49 mg): 207.435 pg/mL*h^2
- Clast_obs ([5]; buccal/sublingual, 0.49 mg): 17.765 pg/mL
- Clast_pred ([5]; buccal/sublingual, 0.49 mg): 15.641 pg/mL
- Lambda_z ([5]; buccal/sublingual, 0.49 mg): 0.709 h⁻¹
- Tlag ([5]; buccal/sublingual, 0.49 mg): 0.000 h
- Tlast ([5]; buccal/sublingual, 0.49 mg): 8.000 h
- Mean PTH (1-34) levels ([5]; 0 min): 0.000 pg/mL
- Mean PTH (1-34) levels ([5]; 24 hour): 0.000 pg/mL
